Common to all, as to assay type: cell-based
One assay has as its target T1, NHE3 (Homo sapiens, UniProt P48764).
T1 construct: host or cells: cells, not specified
T1 sequence (P48764 26-834): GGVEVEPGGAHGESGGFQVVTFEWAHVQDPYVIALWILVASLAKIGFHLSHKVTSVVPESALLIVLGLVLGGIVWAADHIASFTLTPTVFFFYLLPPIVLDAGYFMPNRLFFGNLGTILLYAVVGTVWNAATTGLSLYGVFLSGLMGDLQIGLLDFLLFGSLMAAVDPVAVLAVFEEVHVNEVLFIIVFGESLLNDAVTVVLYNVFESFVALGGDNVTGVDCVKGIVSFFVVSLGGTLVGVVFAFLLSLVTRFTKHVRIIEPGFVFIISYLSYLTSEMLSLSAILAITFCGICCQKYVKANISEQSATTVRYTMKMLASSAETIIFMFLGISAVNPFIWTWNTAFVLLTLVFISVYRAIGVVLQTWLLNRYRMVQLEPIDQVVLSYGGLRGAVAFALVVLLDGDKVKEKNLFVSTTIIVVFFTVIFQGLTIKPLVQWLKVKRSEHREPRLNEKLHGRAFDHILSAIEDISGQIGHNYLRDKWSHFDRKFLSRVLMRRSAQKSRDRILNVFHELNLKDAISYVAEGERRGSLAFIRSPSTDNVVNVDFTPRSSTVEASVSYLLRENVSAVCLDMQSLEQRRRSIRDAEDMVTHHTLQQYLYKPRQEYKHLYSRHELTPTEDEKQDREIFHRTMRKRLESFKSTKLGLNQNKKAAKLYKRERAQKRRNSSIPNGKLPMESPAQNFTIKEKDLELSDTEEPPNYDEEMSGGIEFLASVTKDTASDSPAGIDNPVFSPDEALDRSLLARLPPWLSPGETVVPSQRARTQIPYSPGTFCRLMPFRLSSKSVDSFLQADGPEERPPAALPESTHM
The assay can be described thus: Determination of the NHE inhibition: recovery of intracellular pH after acidification (BCECF fluorescence), NHE3. The settings on record: for IC50: pH recovery registered at three minutes. As to the method:
[drawing 14] is obtained by adding saturated sodium hydrogencarbonate solution to a suspension of 306 mg of 2-(2-chloro-4-methyl-3-thienylamino)-1H-thieno[3,4-d]imidazole hydrochloride (example 5) in 40 ml of water, in the course of which a pH of 10 is established. After the suspension had been stirred at room temperature for 1 hour, the solid was filtered off and washed repeatedly with water, and the product was dried in an air stream. Colorless crystalline product, decomposition point from 180° C. Pharmacological Data: Determination of the NHE Inhibition Test Description:
This test determined the recovery of the intracellular pH (pHi) after acidification, and this recovery occurs in the case of functional NHE even under bicarbonate-free conditions. To this end, the pHi was determined using the pH-sensitive fluorescent dye BCECF (Calbiochem, the BCECF-AM precursor is used). The cells were initially loaded with BCECF. The BCECF fluorescence was determined in a Ratio Fluorescence Spectrometer (Photon Technology International, South Brunswick, N.J., USA) at excitation wavelengths of 505 and 440 nm and an emission wavelength of 535 nm and converted to the pHi by means of calibration curves. The cells had already been incubated in NH4Cl buffer (pH 7.4) in the course of the BCECF loading (NH4Cl buffer: 115 mM NaCl, 20 mM NH4Cl, 5 mM KCl, 1 mM CaCl2, 1 mM MgSO4, 20 mM Hepes, 5 mM glucose, 1 mg/ml BSA; a pH of 7.4 is established using 1 M NaOH). The intracellular acidification is induced by adding 975 μl of an NH4Cl-free buffer (see below) to 25 μl aliquots of the cells incubated in NH4Cl buffer. The subsequent rate of the pH recovery was registered at two minutes for NHE1, at five minutes for NHE2 and at three minutes for NHE3. For the calculation of the inhibitory potency of the tested substances, the cells were initially investigated in buffers in which complete or absolutely no pH recovery took place. For complete pH recovery (100%), the cells were incubated in Na^+-containing buffer (133.8 mM NaCl, 4.7 mM KCl, 1.25 mM CaCl2, 1.25 mM MgCl2, 0.97 mM Na2HPO4, 0.23 mM NaH2PO4, 5 mM Hepes, 5 mM glucose, a pH of 7.0 is established using 1 M NaOH). For the determination of the 0% value, the cells were incubated in an Na^+-free buffer (133.8 mM choline chloride, 4.7 mM KCl, 1.25 mM CaCl2, 1.25 mM MgCl2, 0.97 mM K2HPO4, 0.23 mM KH2PO4, 5 mM Hepes, 5 mM glucose, a pH of 7.0 is established using 1 M KOH). The substances to be tested were made up in the Na^+-containing buffer. The recovery of the intracellular pH at each tested concentration of a substance was expressed in percent of the maximum recovery. The percentages of the pH recovery were used to calculate the IC50 value of the particular substance for the individual NHE subtypes by means of the program Sigma-Plot.

For a further assay, the target named is NHE1 (Homo sapiens, UniProt P19634). Nature of the assay: NHE inhibition, NHE1 subtype. The settings on record: in a therapeutically utilizable concentration range. Here is the method:
(§1) This test determined the recovery of the intracellular pH (pHi) after acidification, and this recovery occurs in the case of functional NHE even under bicarbonate-free conditions. To this end, the pHi was determined using the pH-sensitive fluorescent dye BCECF (Calbiochem, the BCECF-AM precursor is used). The cells were initially loaded with BCECF. The BCECF fluorescence was determined in a Ratio Fluorescence Spectrometer (Photon Technology International, South Brunswick, N.J., USA) at excitation wavelengths of 505 and 440 nm and an emission wavelength of 535 nm and converted to the pHi by means of calibration curves. The cells had already been incubated in NH4Cl buffer (pH 7.4) in the course of the BCECF loading (NH4Cl buffer: 115 mM NaCl, 20 mM NH4Cl, 5 mM KCl, 1 mM CaCl2, 1 mM MgSO4, 20 mM Hepes, 5 mM glucose, 1 mg/ml BSA; a pH of 7.4 is established using 1 M NaOH). The intracellular acidification is induced by adding 975 μl of an NH4Cl-free buffer (see below) to 25 μl aliquots of the cells incubated in NH4Cl buffer. The subsequent rate of the pH recovery was registered at two minutes for NHE1, at five minutes for NHE2 and at three minutes for NHE3. For the calculation of the inhibitory potency of the tested substances, the cells were initially investigated in buffers in which complete or absolutely no pH recovery took place. […]

The target of the next assay is T2, NHE2 (Homo sapiens, UniProt Q9UBY0).
T2 sequence (Q9UBY0 1-812): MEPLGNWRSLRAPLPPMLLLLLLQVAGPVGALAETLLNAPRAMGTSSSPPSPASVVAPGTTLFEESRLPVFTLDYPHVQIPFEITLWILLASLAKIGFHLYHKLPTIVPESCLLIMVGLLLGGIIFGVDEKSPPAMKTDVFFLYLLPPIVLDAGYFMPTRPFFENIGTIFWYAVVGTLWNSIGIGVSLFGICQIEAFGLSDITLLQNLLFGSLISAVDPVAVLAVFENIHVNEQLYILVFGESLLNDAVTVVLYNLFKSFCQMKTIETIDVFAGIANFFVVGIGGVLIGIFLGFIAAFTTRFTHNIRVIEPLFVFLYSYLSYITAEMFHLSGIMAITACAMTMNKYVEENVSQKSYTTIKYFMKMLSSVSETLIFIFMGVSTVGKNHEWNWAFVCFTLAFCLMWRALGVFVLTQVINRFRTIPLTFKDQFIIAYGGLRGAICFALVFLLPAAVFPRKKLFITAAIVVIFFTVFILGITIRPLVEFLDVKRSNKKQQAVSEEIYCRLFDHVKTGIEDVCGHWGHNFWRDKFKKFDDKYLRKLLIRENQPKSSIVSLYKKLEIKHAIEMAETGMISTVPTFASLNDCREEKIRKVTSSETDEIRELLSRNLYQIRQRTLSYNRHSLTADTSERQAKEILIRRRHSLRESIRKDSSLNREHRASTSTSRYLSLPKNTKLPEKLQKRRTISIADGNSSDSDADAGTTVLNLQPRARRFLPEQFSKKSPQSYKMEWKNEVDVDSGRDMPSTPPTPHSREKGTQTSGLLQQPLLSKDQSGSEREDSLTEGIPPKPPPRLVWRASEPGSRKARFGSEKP
Nature of the assay: NHE inhibition, NHE2 subtype. Conditions: in a therapeutically utilizable concentration range. Here is the method: as §1

Another assay concerns the target T3, NHE5 (Homo sapiens, UniProt Q14940).
T3 sequence (Q14940 1-896): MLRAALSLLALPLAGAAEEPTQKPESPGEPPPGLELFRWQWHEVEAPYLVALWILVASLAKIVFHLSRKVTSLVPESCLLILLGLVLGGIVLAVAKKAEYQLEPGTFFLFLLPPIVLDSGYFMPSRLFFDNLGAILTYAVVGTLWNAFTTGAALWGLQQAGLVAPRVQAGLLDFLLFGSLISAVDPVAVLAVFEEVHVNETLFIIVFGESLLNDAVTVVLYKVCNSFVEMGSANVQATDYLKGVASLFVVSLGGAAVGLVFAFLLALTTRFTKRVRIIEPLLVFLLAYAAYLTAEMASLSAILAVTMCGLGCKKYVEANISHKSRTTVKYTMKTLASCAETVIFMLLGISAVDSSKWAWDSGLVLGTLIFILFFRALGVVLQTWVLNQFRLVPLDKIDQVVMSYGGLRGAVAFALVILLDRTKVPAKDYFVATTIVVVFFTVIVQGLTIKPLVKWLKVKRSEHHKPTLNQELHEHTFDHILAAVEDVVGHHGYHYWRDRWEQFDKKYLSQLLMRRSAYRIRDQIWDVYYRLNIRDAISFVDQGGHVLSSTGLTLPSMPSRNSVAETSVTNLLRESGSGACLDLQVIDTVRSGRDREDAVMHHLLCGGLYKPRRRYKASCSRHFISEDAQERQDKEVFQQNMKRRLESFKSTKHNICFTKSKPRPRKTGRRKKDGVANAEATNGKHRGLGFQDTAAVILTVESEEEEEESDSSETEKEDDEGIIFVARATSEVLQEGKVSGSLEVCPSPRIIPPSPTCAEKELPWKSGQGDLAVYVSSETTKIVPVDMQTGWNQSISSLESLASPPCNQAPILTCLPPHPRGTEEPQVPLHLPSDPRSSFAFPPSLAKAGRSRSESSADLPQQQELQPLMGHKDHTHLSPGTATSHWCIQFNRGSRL
Nature of the assay: NHE inhibition, NHE5 subtype. The settings on record: in a therapeutically utilizable concentration range.

Each structure is given as a SMILES string. Structures can show the parent of a compound that is named as a salt.

Chain of NHE1 (P19634 whole entry, species assumed): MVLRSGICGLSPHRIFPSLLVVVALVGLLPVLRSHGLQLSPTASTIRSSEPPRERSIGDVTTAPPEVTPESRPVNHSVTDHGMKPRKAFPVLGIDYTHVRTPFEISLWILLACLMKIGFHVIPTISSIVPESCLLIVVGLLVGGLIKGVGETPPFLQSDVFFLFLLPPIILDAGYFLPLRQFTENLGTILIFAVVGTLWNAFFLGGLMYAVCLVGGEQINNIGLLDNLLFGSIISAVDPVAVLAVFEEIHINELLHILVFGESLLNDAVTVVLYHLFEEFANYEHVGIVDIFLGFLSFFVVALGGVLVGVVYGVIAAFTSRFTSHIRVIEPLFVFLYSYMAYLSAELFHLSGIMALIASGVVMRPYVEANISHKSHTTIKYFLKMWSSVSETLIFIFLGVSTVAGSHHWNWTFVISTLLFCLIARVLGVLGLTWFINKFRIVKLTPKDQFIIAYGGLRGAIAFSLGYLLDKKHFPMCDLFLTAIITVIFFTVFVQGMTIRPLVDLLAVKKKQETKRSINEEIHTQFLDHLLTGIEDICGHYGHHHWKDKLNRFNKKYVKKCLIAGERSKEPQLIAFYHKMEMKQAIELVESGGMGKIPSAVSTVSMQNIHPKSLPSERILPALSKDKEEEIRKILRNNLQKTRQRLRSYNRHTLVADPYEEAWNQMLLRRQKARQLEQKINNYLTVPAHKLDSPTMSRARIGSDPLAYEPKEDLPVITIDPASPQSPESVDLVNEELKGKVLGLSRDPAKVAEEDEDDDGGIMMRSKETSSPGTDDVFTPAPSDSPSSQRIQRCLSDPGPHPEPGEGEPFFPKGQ

As a reminder, the IC50 is the point on the concentration scale where inhibition reaches its midpoint. Low readings indicate greater potency in that assay, high ones weaker potency in that assay. Take `Clc1cccc(Cl)c1Nc1nc2cscc2[nH]1` [Example 2, 2-(2,6-Dichlorophenylamino)-1H-thieno[3,4-d]imidazole hydrochloride]: on NHE3, the half-maximal inhibitory concentration (IC50) was found to be 220 nM.
On the same count and under the same terms, with `Cc1csc(Cl)c1Nc1nc2cscc2[nH]1` [Example 5, 2-(2-Chloro-4-methyl-3-thienylamino)-1H-thieno[3,4-d]imidazole hydrochloride] the figure was 150 nM; with `FC(F)(F)c1ccccc1Nc1nc2cscc2[nH]1` [Example 6, 2-(2-Trifluoromethylphenylamino)-1H-thieno[3,4-d]imidazole hydrochloride], 6510 nM; with `Cc1cccc(Cl)c1Nc1nc2cscc2[nH]1` [Example 9, 2-(2-Chloro-6-methylphenylamino)-1H-thieno[3,4-d]imidazole hydrochloride], 1430 nM.
For the compound `Clc1csc(Cl)c1Nc1nc2cscc2[nH]1` [Example 10, 2-(2,4-Dichloro-3-thienylamino)-1H-thieno[3,4-d]imidazole hydrochloride], 320 nM corresponded to half-maximal inhibition on NHE3 (IC50).
Take `Cc1csc(Cl)c1NC1=NCCN1` [tiamenidine]: the “inhibitory action on NHE3” value against NHE3 (in a therapeutically utilizable concentration range) is recorded as “no relevant inhibitory actions”. For the same compound, the “inhibitory action on NHE1” value against NHE1 was “no relevant inhibitory actions”. Moreover, the “inhibitory action on NHE2” value against NHE2 is given as “no relevant inhibitory actions”. Besides, on NHE5, the “inhibitory action on NHE5” value is on record as “no relevant inhibitory actions”.

The record behind these values is patent publication US7179830B2, “Substituted thienoimidazoles useful for disease treatment and prevention” (Sanofi-aventis Deutschland GmbH, priority 2003, dated 2007).
